Source: US10414811B2, “Protease-resistant lipidated GLP-1 analogs” (MEDIMMUNE LIMITED, priority 2015, dated 2019)
Read-outs that look alike come from different tables or passages of the source. Square brackets hold non-standard residues; d marks the D form. Peptide text beside a SMILES is read from it. αMeF = C[C@](N)(Cc1ccccc1)C(=O)O; αMeK = C[C@](N)(CCCCN)C(=O)O; αMeS = C[C@](N)(CO)C(=O)O; Aib = CC(C)(N)C(=O)O

Columns and labels:
[1] = target: T1, human glucagon receptor (GCGR) (Homo sapiens, UniProt P47871); assay: cAMP assay, human GCGR cells; format: cell-based; conditions: cAMP assay
T1 construct: expressed in transfected cells
Experimental: (§1) Sample dilutions are made in duplicate.
(§2) A frozen cryo-vial of cells expressing the receptor of interest is thawed rapidly in a water-bath, transferred to pre-warmed assay buffer and spun at 240×g for 5 minutes. Cells are re-suspended in assay buffer at a batch-dependent optimized concentration (e.g. hGCGR cells at 2×10^5 cells/ml, hGLP-1R and hGIPR cells at 1×10^5 cells/ml).
(§3) To this, 5 μL cell suspension is added and the plates incubated at room temperature for 30 minutes.
(§4) cAMP levels are measured using a commercially available cAMP dynamic 2 HTRF kit (Cisbio, Cat #62AM4PEJ), following the two step protocol as per manufacturer's recommendations. In brief; anti-cAMP cryptate (donor fluorophore) and cAMP-d2 (acceptor fluorophore) are made up separately by diluting each 1/20 in conjugate & lysis buffer provided in the kit. 5 μL anti-cAMP cryptate is added to wells of the assay plate, and 5 μL cAMP-d2 is added to wells except non-specific binding (NSB) wells, to which conjugate and lysis buffer are added. […] EC50 values of the synthetic peptides determined in cAMP assays are then determined.
(§5) Data is transformed to % Delta F as described in the manufacturer's guidelines and analyzed by 4-parameter logistic fit to determine EC50 values. […] To compare the balance of activities at the GLP-1R and GCGR between different peptides and across different conditions, these can be correlated, where the EC50's are related to those of comparator peptides.

[2] = target: T2, human glucose-dependent insulinotropic peptide receptor (GIPR) (Homo sapiens, UniProt P48546); assay: cAMP assay, human GIPR cells; format: cell-based; conditions: cAMP assay
T2 construct: expressed in transfected cells
T2 sequence (P48546 22-466): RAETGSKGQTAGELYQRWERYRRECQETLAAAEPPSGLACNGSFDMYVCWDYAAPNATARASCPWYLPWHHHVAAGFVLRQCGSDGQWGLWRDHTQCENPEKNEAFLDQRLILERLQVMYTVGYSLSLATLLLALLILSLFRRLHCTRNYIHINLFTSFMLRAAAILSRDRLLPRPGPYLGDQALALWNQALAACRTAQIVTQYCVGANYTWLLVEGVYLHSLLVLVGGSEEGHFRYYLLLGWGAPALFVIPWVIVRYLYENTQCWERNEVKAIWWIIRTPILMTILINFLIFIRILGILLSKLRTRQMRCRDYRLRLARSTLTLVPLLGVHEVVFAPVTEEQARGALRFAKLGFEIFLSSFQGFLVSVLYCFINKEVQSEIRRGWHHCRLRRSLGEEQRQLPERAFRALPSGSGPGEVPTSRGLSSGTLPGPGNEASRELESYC
Experimental: as §1, §2, §3, §4, §5

[3] = first determination (n1), read-out: Primary assay EC50 Gluc-R (n1)
[4] = second determination (n2), read-out: Primary assay EC50 Gluc-R (n2)
[5] = first determination (n1), read-out: Primary assay EC50 GIP-R (n1)
[6] = second determination (n2), read-out: Primary assay EC50 GIP-R (n2)

T1 sequence (P47871 26-477): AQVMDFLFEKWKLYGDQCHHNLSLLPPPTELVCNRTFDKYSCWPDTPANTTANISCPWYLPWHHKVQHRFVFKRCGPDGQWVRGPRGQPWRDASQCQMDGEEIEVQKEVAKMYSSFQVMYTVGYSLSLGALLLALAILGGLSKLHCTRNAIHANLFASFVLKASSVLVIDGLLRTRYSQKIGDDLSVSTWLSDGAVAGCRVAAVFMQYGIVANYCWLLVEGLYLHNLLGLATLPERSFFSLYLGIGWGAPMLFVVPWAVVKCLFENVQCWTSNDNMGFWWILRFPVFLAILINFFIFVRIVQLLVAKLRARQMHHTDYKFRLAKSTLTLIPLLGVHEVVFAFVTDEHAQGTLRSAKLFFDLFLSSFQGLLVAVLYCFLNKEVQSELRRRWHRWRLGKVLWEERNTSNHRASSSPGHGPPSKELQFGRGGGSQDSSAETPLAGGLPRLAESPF

Row | SMILES | EC50 [1, 3] [nM] | EC50 [1, 4] [nM] | EC50 [2, 5] [nM] | EC50 [2, 6] [nM]
1 | CC[C@H](C)[C@H](NC(=O)[C@H](Cc1ccccc1)NC(=O)[C@H](CCC(=O)O)NC(=O)[C@H](CCCCN)NC(=O)[C@H](C)NC(=O)[C@H](C)NC(=O)[C@H](CCC(N)=O)NC(=O)CNC(=O)[C@H](CCC(=O)O)NC(=O)[C@H](CC(C)C)NC(=O)[C@H](Cc1ccc(O)cc1)NC(=O)[C@H](CO)NC(=O)[C@](C)(CO)NC(=O)[C@@H](NC(=O)[C@H](CC(=O)O)NC(=O)[C@H](CO)NC(=O)[C@@H](NC(=O)[C@H](Cc1ccccc1)NC(=O)[C@@H](NC(=O)CNC(=O)[C@H](CCC(=O)O)NC(=O)C(C)(C)NC(=O)[C@@H](N)Cc1c[nH]cn1)[C@@H](C)O)[C@@H](C)O)C(C)C)C(=O)N[C@@H](C)C(=O)N[C@@H](Cc1c[nH]c2ccccc12)C(=O)N[C@@H](CC(C)C)C(=O)N[C@H](C(=O)N[C@@H](CCCCN)C(=O)NCC(=O)N[C@@H](CCCNC(=N)N)C(N)=O)C(C)C [compound 21] | ≥ 340 | ≥ 340 | ≥ 340 | ≥ 340
2 | CC[C@H](C)[C@H](NC(=O)[C@](C)(Cc1ccccc1)NC(=O)[C@H](CCC(=O)O)NC(=O)[C@H](CCCCNC(=O)CC[C@H](NC(=O)CC[C@H](NC(=O)CCCCCCCCCCCCCCCCC(=O)O)C(=O)O)C(=O)O)NC(=O)[C@H](C)NC(=O)[C@H](C)NC(=O)[C@H](CCC(=O)O)NC(=O)CNC(=O)[C@H](CCC(=O)O)NC(=O)[C@H](CC(C)C)NC(=O)[C@](C)(Cc1ccccc1)NC(=O)[C@H](CO)NC(=O)[C@](C)(CO)NC(=O)[C@@H](NC(=O)[C@H](CC(=O)O)NC(=O)[C@H](CO)NC(=O)[C@@H](NC(=O)[C@](C)(Cc1ccccc1)NC(=O)[C@H](CO)NC(=O)CNC(=O)[C@H](CCC(=O)O)NC(=O)C(C)(C)NC(=O)[C@@H](N)Cc1c[nH]cn1)[C@@H](C)O)C(C)C)C(=O)N[C@@H](C)C(=O)N[C@@](C)(Cc1ccccc1)C(=O)N[C@H](C(=O)N[C@H](C(=O)N[C@@](C)(CCCCN)C(=O)NCC(=O)NCC(N)=O)C(C)C)C(C)C [compound 156] | ≥ 27 | ≥ 27 | ≥ 27 | ≥ 27
3 | CC[C@H](C)[C@H](NC(=O)[C@](C)(Cc1ccccc1)NC(=O)[C@H](CCC(=O)O)NC(=O)[C@H](CCC(=O)O)NC(=O)[C@H](C)NC(=O)[C@H](C)NC(=O)[C@H](CCC(=O)O)NC(=O)CNC(=O)[C@H](CCC(=O)O)NC(=O)[C@H](CC(C)C)NC(=O)[C@](C)(Cc1ccccc1)NC(=O)[C@H](CO)NC(=O)[C@](C)(CO)NC(=O)[C@@H](NC(=O)[C@H](CC(=O)O)NC(=O)[C@H](CO)NC(=O)[C@@H](NC(=O)[C@](C)(Cc1ccccc1)NC(=O)[C@H](CO)NC(=O)CNC(=O)[C@H](CCC(=O)O)NC(=O)C(C)(C)NC(=O)[C@@H](N)Cc1c[nH]cn1)[C@@H](C)O)C(C)C)C(=O)N[C@@H](C)C(=O)N[C@@](C)(Cc1ccccc1)C(=O)N[C@H](C(=O)N[C@H](C(=O)N[C@@H](CCC(=O)O)C(=O)NCC(=O)NCC(N)=O)C(C)C)C(C)C [compound 44] (H-H[Aib]EGS[αMeF]TSDV[αMeS]S[αMeF]LEGEAAEE[αMeF]IA[αMeF]VVEGG-NH2) | ≥ 31 | ≥ 31 | ≥ 31 | ≥ 31
4 | CC[C@H](C)[C@H](NC(=O)[C@](C)(Cc1ccccc1)NC(=O)[C@H](CCC(=O)O)NC(=O)[C@](C)(CCCCN)NC(=O)[C@H](C)NC(=O)[C@H](C)NC(=O)[C@H](CCC(=O)O)NC(=O)CNC(=O)[C@H](CCC(=O)O)NC(=O)[C@H](CC(C)C)NC(=O)[C@](C)(Cc1ccccc1)NC(=O)[C@H](CO)NC(=O)[C@](C)(CO)NC(=O)[C@@H](NC(=O)[C@H](CC(=O)O)NC(=O)[C@H](CCC(=O)O)NC(=O)[C@@H](NC(=O)[C@](C)(Cc1ccccc1)NC(=O)[C@H](CO)NC(=O)CNC(=O)[C@H](CCC(=O)O)NC(=O)C(C)(C)NC(=O)[C@@H](N)Cc1c[nH]cn1)[C@@H](C)O)C(C)C)C(=O)N[C@@H](C)C(=O)N[C@@](C)(Cc1ccccc1)C(=O)N[C@H](C(=O)N[C@H](C(=O)N[C@@](C)(CCCCN)C(=O)NCC(=O)NCC(N)=O)C(C)C)C(C)C [compound 28] (H-H[Aib]EGS[αMeF]TEDV[αMeS]S[αMeF]LEGEAA[αMeK]E[αMeF]IA[αMeF]VV[αMeK]GG-NH2) | ≥ 100 | ≥ 100 | ≥ 100 | ≥ 100
5 | CC[C@H](C)[C@H](NC(=O)[C@H](Cc1ccccc1)NC(=O)[C@H](CCC(=O)O)NC(=O)[C@H](CCCCN)NC(=O)[C@H](C)NC(=O)[C@H](C)NC(=O)[C@H](CCC(N)=O)NC(=O)CNC(=O)[C@H](CCC(=O)O)NC(=O)[C@H](CC(C)C)NC(=O)[C@H](Cc1ccc(O)cc1)NC(=O)[C@H](CO)NC(=O)[C@H](CO)NC(=O)[C@@H](NC(=O)[C@H](CC(=O)O)NC(=O)[C@](C)(CO)NC(=O)[C@@H](NC(=O)[C@H](Cc1ccccc1)NC(=O)[C@@H](NC(=O)CNC(=O)[C@H](CCC(=O)O)NC(=O)C(C)(C)NC(=O)[C@@H](N)Cc1c[nH]cn1)[C@@H](C)O)[C@@H](C)O)C(C)C)C(=O)N[C@@H](C)C(=O)N[C@@H](Cc1c[nH]c2ccccc12)C(=O)N[C@@H](CC(C)C)C(=O)N[C@H](C(=O)N[C@@H](CCCCN)C(=O)NCC(=O)N[C@@H](CCCNC(=N)N)C(N)=O)C(C)C [compound 19] | ≥ 130 | ≥ 130 | ≥ 130 | ≥ 130
6 | CC[C@H](C)[C@H](NC(=O)[C@H](Cc1ccccc1)NC(=O)[C@H](CCC(=O)O)NC(=O)[C@H](CCCCN)NC(=O)[C@H](C)NC(=O)[C@H](C)NC(=O)[C@H](CCC(N)=O)NC(=O)CNC(=O)[C@H](CCC(=O)O)NC(=O)[C@H](CC(C)C)NC(=O)[C@H](Cc1ccc(O)cc1)NC(=O)[C@H](CO)NC(=O)C(C)(C)NC(=O)[C@@H](NC(=O)[C@H](CC(=O)O)NC(=O)[C@H](CO)NC(=O)[C@@H](NC(=O)[C@H](Cc1ccccc1)NC(=O)[C@@H](NC(=O)CNC(=O)[C@H](CCC(=O)O)NC(=O)C(C)(C)NC(=O)[C@@H](N)Cc1c[nH]cn1)[C@@H](C)O)[C@@H](C)O)C(C)C)C(=O)N[C@@H](C)C(=O)N[C@@H](Cc1c[nH]c2ccccc12)C(=O)N[C@@H](CC(C)C)C(=O)N[C@H](C(=O)N[C@@H](CCCCN)C(=O)NCC(=O)N[C@@H](CCCNC(=N)N)C(N)=O)C(C)C [compound 22] (H-H[Aib]EGTFTSDV[Aib]SYLEGQAAKEFIAWLVKGR-NH2; N-terminus assumed) | 390 | 240 | 480 | 480
7 | CC[C@H](C)[C@H](NC(=O)[C@](C)(Cc1ccccc1)NC(=O)[C@H](CCC(=O)O)NC(=O)[C@](C)(CCCCN)NC(=O)[C@H](C)NC(=O)[C@H](C)NC(=O)[C@H](CCC(=O)O)NC(=O)CNC(=O)[C@H](CCC(=O)O)NC(=O)[C@H](CC(C)C)NC(=O)[C@](C)(Cc1ccccc1)NC(=O)[C@H](CO)NC(=O)[C@H](CO)NC(=O)[C@@H](NC(=O)[C@H](CCC(=O)O)NC(=O)[C@H](CO)NC(=O)[C@H](CO)NC(=O)[C@](C)(Cc1ccccc1)NC(=O)[C@H](CO)NC(=O)CNC(=O)[C@H](CCC(=O)O)NC(=O)C(C)(C)NC(=O)[C@@H](N)Cc1c[nH]cn1)C(C)C)C(=O)N[C@@H](C)C(=O)N[C@@](C)(Cc1ccccc1)C(=O)N[C@H](C(=O)N[C@H](C(=O)N[C@@](C)(CCCCN)C(=O)NCC(=O)NCC(N)=O)C(C)C)C(C)C [compound 9] (H-H[Aib]EGS[αMeF]SSEVSS[αMeF]LEGEAA[αMeK]E[αMeF]IA[αMeF]VV[αMeK]GG-NH2; N-terminus assumed) | ≥ 29 | ≥ 29 | ≥ 29 | ≥ 29
